Test results: patent publication US20090069302A1 (SMITHKLINE BEECHAM CORPORATION, priority 2006, published 2009)
Each block holds one compound with its values, some of them ahead of it.

Key:
AXOR109 = target: T1, AXOR109 (Homo sapiens, UniProt Q8TDU6); assay: Human AXOR109/Melanophore Assay; type: cell-based; conditions: melanophore assay; for Emax: 1 h, normalized to alpha-MSH system max; for EC50: AXOR109 transfected melanophores
T1 construct: expressed in transfected cells; host or cells: melanophore cells, transfected by electroporation
T1 sequence (Q8TDU6 1-330): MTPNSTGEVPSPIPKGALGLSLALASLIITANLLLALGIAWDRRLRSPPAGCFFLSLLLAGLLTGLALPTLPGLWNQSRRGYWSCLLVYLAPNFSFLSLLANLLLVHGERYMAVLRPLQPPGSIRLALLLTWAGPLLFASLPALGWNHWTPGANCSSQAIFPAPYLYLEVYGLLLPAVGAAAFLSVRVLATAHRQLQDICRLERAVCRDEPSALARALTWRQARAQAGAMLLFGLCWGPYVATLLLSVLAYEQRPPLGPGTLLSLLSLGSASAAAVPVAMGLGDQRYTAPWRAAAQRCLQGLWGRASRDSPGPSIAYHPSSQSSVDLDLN
How it was run: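 Readout is melanosome dispersion in melanophores electroporated with human AXOR109, in buffer containing 10 nM melatonin and 1% DMSO. Transmittance was read before and after 1 h compound exposure across 11-point 3-fold dilutions. Response was normalized to 200 nM alpha-MSH as system max, and pEC50 was obtained from a Hill fit.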

GK rats = assay: Effect on glucose, insulin and GLP-1 secretion in GK rats after oral glucose; type: in vivo, rat; set-up: Glucose changes / Insulin changes / GLP-1 changes: unit not given here; conditions: for GLP-1 changes: active GLP-1, DPPIV inhibitor pretreated; for GLP-1 changes / Insulin changes / Glucose changes: 5 mg/kg intracolonic at −30 min, glucose 1 g/kg oral at 0 min; for Insulin changes: plasma; for Insulin changes / Glucose changes: DPPIV inhibitor pretreated; for Glucose changes: whole blood
Protocol: Eight week old conscious GK rats (four per group) were pretreated with a DPPIV inhibitor immediately after control blood sampling at −40 min (black arrow), and dosed with vehicle (0.5% HPMC/0.1% Tween80) or 5 mg/kg Example 14 through intracolonic injection at −30 time point (blue arrow). Glucose (1 g/kg) was given orally at 0 min. Blood samples were collected at −40, 0, 5, 15, 30, 60, 90 and 120 minutes after dosing. Whole blood glucose, plasma insulin, and active GLP-1 were measured (ELISA kits, LINCO). […] The results are listed in Tables 3a, 3b, and 3c, and graphically represented in FIGS. 2a, 2b, and 2c, respectively.

Compound: CCN([C@H]1CCN(S(=O)(=O)c2ccc(OC)c(OC)c2)C1)S(=O)(=O)c1ccc(OC)c(OC)c1 [Example 62, N-((3S)-1-{[3,4-bis(methyloxy)phenyl]sulfonyl}-3-pyrrolidinyl)-N-ethyl-3,4-bis(methyloxy)benzenesulfonamide]
Emax (AXOR109): 76 to 100%
EC50 (AXOR109): 1260 to 10000 nM

Compound: COc1ccc(S(=O)(=O)N2CCN(S(=O)(=O)c3ccc(OC)c(OC)c3)C2=O)cc1OC [Example 23, 1,3-bis{[3,4-bis(methyloxy)phenyl]sulfonyl}-2-imidazolidinone]
Emax (AXOR109): 0 to 50%
EC50 (AXOR109): 1260 to 10000 nM

Compound: COc1ccc(S(=O)(=O)N2C[C@H](C)N(S(=O)(=O)c3ccc(OS(C)(=O)=O)c(OC)c3)C[C@@H]2C)cc1OC [Example 63, 4-[((2S,5S)-4-{[3,4-bis(methyloxy)phenyl]sulfonyl}-2,5-dimethyl-1-piperazinyl)sulfonyl]-2-(methyloxy)phenyl methanesulfonate]
EC50 (AXOR109): 1260 to 10000 nM

Compound: COc1ccc(S(=O)(=O)N2CCCCC(N(C)S(=O)(=O)c3ccc(OC)c(OC)c3)C2)cc1OC (stereo not drawn) [Example 92]
Emax (AXOR109): 51 to 75%
EC50 (AXOR109): 1260 to 10000 nM

Compound: COc1ccc(S(=O)(=O)N2CCN(S(=O)(=O)c3ccc(OC)c(OC)c3)[C@@H](C)[C@H]2C)cc1OC [Example 40, 1,4-bis{[3,4-bis(methyloxy)phenyl]sulfonyl}-2,3-dimethylpiperazine]
Emax (AXOR109): 51 to 75%
EC50 (AXOR109): 126 to 1000 nM

Compound: COc1ccc(S(=O)(=O)N2C[C@H](C)N(S(=O)(=O)c3cccc4cccnc34)C[C@@H]2C)cc1OC [Example 69, 8-[((2S,5S)-4-{[3,4-bis(methyloxy)phenyl]sulfonyl}-2,5-dimethyl-1-piperazinyl)sulfonyl]quinoline]
Emax (AXOR109): 76 to 100%
EC50 (AXOR109): 1260 to 10000 nM

Continued, in another order:

Emax (AXOR109): 51 to 75%
EC50 (AXOR109): < 126 nM
Compound: COc1ccc(S(=O)(=O)N(C)CCN(C)S(=O)(=O)c2ccc(OC)c(OC)c2)cc1OC [Example 14, N,N′-1,2-ethanediylbis[N-methyl-3,4-bis(methyloxy)benzenesulfonamide]]
active GLP-1 and insulin level compared to controls (GK rats; 5 mg/kg intracolonic, in words): higher level of active GLP-1 and insulin
glucose disposal compared to controls (GK rats; 5 mg/kg intracolonic, in words): improved glucose disposals
GLP-1 changes (GK rats; 0 min): 15.08
GLP-1 changes (GK rats; 15 min): 23.63
GLP-1 changes (GK rats; 30 min): 19.58
GLP-1 changes (GK rats; 60 min): 23.63
GLP-1 changes (GK rats; 90 min): 23.63
GLP-1 changes (GK rats; 120 min): 21.15
GLP-1 changes (GK rats; −40 min (before dosing)): 12.65
Insulin changes (GK rats; 0 min): 68.06
Insulin changes (GK rats; 15 min): 366.79
Insulin changes (GK rats; 30 min): 289.23
Insulin changes (GK rats; 60 min): 152.33
Insulin changes (GK rats; 90 min): 146.47
Insulin changes (GK rats; 120 min): 158.31
Insulin changes (GK rats; −40 min (before dosing)): 85.82
Glucose changes (GK rats; 0 min): 74.25
Glucose changes (GK rats; 15 min): 173.75
Glucose changes (GK rats; 30 min): 174.75
Glucose changes (GK rats; 60 min): 122.50
Glucose changes (GK rats; 90 min): 110.00
Glucose changes (GK rats; 120 min): 114.50
Glucose changes (GK rats; −40 min (before dosing)): 106.75

Emax (AXOR109): 0 to 50%
EC50 (AXOR109): 126 to 1000 nM
Compound: COc1ccc(S(=O)(=O)N2C[C@@H](C)N(S(=O)(=O)c3ccc(OC)c(OC)c3)[C@H](C)C2)cc1OC [Example 17, (2R,6R)-1,4-bis{[3,4-bis(methyloxy)phenyl]sulfonyl}-2,6-dimethylpiperazine]

Emax (AXOR109): 51 to 75%
EC50 (AXOR109): 126 to 1000 nM
Compound: COc1ccc(S(=O)(=O)N2C[C@H](C)N(S(=O)(=O)c3ccc(OC)c(OC)c3)[C@@H](C)C2)cc1OC [Example 21, (2S,6S)-1,4-bis{[3,4-bis(methyloxy)phenyl]sulfonyl}-2,6-dimethylpiperazine]

Emax (AXOR109): > 100%
EC50 (AXOR109): < 126 nM
Compound: COc1ccc(S(=O)(=O)N2C[C@@H](C)N(S(=O)(=O)c3ccc(OC)c(OC)c3)[C@@H](C)C2)cc1OC [Example 79, cis-1,4-bis{[3,4-bis(methyloxy)phenyl]sulfonyl}-2,6-dimethylpiperazine]
